From patent publication US8987314B2, “Amide, urea or sulfone amide linked benzothiazole inhibitors of endothelial lipase” (Bristol-Myers Squibb Company, priority 2012, dated 2015)

Legend:
[1] = biological target: hepatic lipase (HL) (Homo sapiens (Human), UniProt P11150); assay: HL assay: hepatic lipase activity with fluorescent substrate A10070 in DMPG vesicles; format: biochemical
Outline: (§1)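 Vesicles prepared: A10070 dried with DMPG, resuspended in HEPES pH 8.0/NaCl/EDTA, sonicated on ice. Enzyme incubated with compound 30 min at 37° C. Reaction started with 1:10 diluted vesicles. Fluorescence (490/530 nm) followed 60 min; slope from 300–900 secs gives rate.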

[2] = biological target: Endothelial lipase (EL) (Homo sapiens (Human), UniProt Q9Y5X9); assay: EL assay: endothelial lipase activity with fluorescent substrate A10070 in DMPG vesicles; format: biochemical
Outline: as §1

Chain of hepatic lipase (HL) (P11150 23-499, species assumed): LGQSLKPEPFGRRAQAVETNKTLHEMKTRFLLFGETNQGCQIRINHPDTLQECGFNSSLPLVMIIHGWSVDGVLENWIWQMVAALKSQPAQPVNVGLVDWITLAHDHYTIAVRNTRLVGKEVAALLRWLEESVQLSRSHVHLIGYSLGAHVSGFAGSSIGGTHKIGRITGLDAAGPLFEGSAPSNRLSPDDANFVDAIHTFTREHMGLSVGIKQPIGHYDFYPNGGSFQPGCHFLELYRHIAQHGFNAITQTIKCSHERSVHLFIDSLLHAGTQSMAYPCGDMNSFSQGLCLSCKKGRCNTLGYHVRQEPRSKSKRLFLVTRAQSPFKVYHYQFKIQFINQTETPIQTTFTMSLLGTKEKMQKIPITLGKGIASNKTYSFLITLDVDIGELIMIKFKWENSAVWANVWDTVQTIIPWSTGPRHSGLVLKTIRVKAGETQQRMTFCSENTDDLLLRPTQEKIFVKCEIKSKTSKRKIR
Chain of Endothelial lipase (EL) (Q9Y5X9 21-500): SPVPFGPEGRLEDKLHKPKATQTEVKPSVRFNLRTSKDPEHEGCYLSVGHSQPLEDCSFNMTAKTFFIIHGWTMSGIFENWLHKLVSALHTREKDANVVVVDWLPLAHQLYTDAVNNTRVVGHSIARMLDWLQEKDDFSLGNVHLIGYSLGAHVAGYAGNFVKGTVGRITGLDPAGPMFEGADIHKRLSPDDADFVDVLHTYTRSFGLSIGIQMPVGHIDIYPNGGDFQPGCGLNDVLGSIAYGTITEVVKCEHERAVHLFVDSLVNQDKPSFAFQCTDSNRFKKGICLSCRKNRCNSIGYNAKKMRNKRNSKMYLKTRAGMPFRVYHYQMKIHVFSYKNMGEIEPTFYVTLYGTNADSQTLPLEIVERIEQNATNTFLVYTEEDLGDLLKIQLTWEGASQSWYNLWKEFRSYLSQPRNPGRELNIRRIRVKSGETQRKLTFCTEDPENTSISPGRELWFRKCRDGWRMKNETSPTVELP

Row | IC50 [1] [nM] | IC50 [2] [nM] | SMILES
1 | 13 | < 10 | Cc1cc2nc(C(C(=O)NCCS(N)(=O)=O)S(=O)(=O)CCC(F)(F)F)sc2cc1-c1ccc(F)nc1 (stereo not shown) [Example B130, 2-(6-(6-fluoro-3-pyridinyl)-5-methyl-1,3-benzothiazol-2-yl)-2-(3,3,3-trifluoropropyl-sulfonyl)-N-(2-sulfamoylethyl)acetamide]
2 | 12 | < 10 | Cc1cc2nc(C(C(=O)NCCS(N)(=O)=O)S(=O)(=O)CC(C)C)sc2cc1-c1ccc(F)nc1 (stereo not shown) [Example B131, 2-(6-(6-fluoro-3-pyridinyl)-5-methyl-1,3-benzothiazol-2-yl)-2-(isobutylsulfonyl)-N-(2-sulfamoylethyl)acetamide]
3 | 22 | < 10 | NS(=O)(=O)CCNC(=O)C(c1nc2c(F)cc(-c3ccccc3)cc2s1)S(=O)(=O)Cc1ccccc1 (stereo not shown) [Example B133, 2-(benzylsulfonyl)-2-(4-fluoro-6-phenyl-1,3-benzothiazol-2-yl)-N-(2-sulfamoylethyl)acetamide]
4 | 18 | < 10 | COCCS(=O)(=O)C(C(=O)NCCS(N)(=O)=O)c1nc2c(F)cc(-c3ccccc3)cc2s1 (stereo not shown) [Example B134, 2-(4-fluoro-6-phenyl-1,3-benzothiazol-2-yl)-2-((2-methoxyethyl)sulfonyl)-N-(2-sulfamoylethyl)a-cetamide]
5 | 17500 | < 10 | CS(=O)(=O)C(C(=O)NCc1csc(N)n1)c1nc2ccc(-c3ccc(C(=O)N4CCOCC4)cc3)cc2s1 (stereo not shown) [Example B137, N-((2-amino-1,3-thiazol-4-yl)methyl)-2-(methylsulfonyl)-2-(6-(4-(4-morpholinylcarbonyl)phen-yl)-1,3-benzothiazol-2-yl)acetamide]
6 | 142 | < 10 | Cn1cc(-c2cc3sc(C(C(=O)NCCS(N)(=O)=O)S(=O)(=O)Cc4ccccc4)nc3cc2F)cn1 (stereo not shown) [Example B138, 2-(benzylsulfonyl)-2-(5-fluoro-6-(1-methyl-1H-pyrazol-4-yl)-1,3-benzothiazol-2-yl)-N-(2-sulfamoylethyl)acetamide]
7 | 2090 | 16 | NS(=O)(=O)CCNC(=O)C(c1nc2ccc(-c3cncnc3)cc2s1)S(=O)(=O)CCC(F)(F)F (stereo not shown) [Example B139, 2-(6-(5-Pyrimidinyl)-1,3-benzothiazol-2-yl)-N-(2-sulfamoylethyl)-2-((3,3,3-trifluoropropyl)sulfonyl)a-cetamide]
8 | 8790 | 13.7 | NS(=O)(=O)CCNC(=O)C(c1nc2ccc(-c3cncnc3)cc2s1)S(=O)(=O)Cc1ccccc1 (stereo not shown) [Example B140, 2-(benzylsulfonyl)-2-(6-(5-pyrimidinyl)-1,3-benzothiazol-2-yl)-N-(2-sulfamoylethyl)acetamide]
9 | 77 | > 10 | COc1cc(-c2ccc3nc(C(C(=O)NCCS(N)(=O)=O)S(C)(=O)=O)sc3c2)c(F)cn1 (stereo not shown) [Example B142, 2-(6-(5-fluoro-2-methoxy-4-pyridinyl)-1,3-benzothiazol-2-yl)-2-(methylsulfonyl)-N-(2-sulfamoylethyl)acetamide]
10 | 4740 | 18 | NS(=O)(=O)CCNC(=O)C(c1nc2ccc(-c3cncnc3)cc2s1)S(=O)(=O)Cc1ccc(F)cc1 (stereo not shown) [Example B143, 2-((4-fluorobenzyl)sul-fonyl)-2-(6-(5-pyrimidinyl)-1,3-benzothiazol-2-yl)-N-(2-sulfamoylethyl)acetamide]
11 | 362 | < 10 | Cn1ccc(-c2ccc3nc(C(C(=O)NCCS(N)(=O)=O)S(=O)(=O)CCC(F)(F)F)sc3c2)cc1=O (stereo not shown) [Example B145, 2-(6-(1-methyl-2-oxo-1,2-dihydro-4-pyridinyl)-1,3-benzothiazol-2-yl)-N-(2-sulfamoylethyl)-2-((3,3,3-trifluoropropyl)sulfonyl)a-cetamide]
12 | 916 | < 10 | CS(=O)(=O)C(C(=O)NCCS(N)(=O)=O)c1nc2ccc(-c3cncnc3)cc2s1 (stereo not shown) [Example B146, 2-(methylsulfonyl)-2-(6-(5-pyrimidinyl)-1,3-benzothiazol-2-yl)-N-(2-sulfamoylethyl)acetamide]
13 | < 10 | < 10 | COc1cc(-c2ccc3nc(C(C(=O)NCCS(N)(=O)=O)S(C)(=O)=O)sc3c2)ccn1 (stereo not shown) [Example B147, 2-(6-(2-methoxy-4-pyridinyl)-1,3-benzothiazol-2-yl)-2-(methylsulfonyl)-N-(2-sulfamoylethyl)acetamide]
14 | 64 | < 10 | COc1nccc(-c2ccc3nc(C(C(=O)NCCS(N)(=O)=O)S(C)(=O)=O)sc3c2)c1F (stereo not shown) [Example B149, 2-(6-(3-fluoro-2-methoxy-4-pyridinyl)-1,3-benzothiazol-2-yl)-2-(methylsulfonyl)-N-(2-sulfamoylethyl)acetamide]
15 | 39 | < 10 | Cc1nnc(CNC(=O)C(c2nc3cc(F)c(-c4ccccc4)cc3s2)S(=O)(=O)Cc2ccccc2)o1 (stereo not shown) [Example B153, 2-(benzylsulfonyl)-2-(5-fluoro-6-phenyl-1,3-benzothiazol-2-yl)-N-((5-methyl-1,3,4-oxadiazol-2-yl)methyl)acetamide]
16 | 11 | < 10 | Cc1nnc(CNC(=O)C(c2nc3cc(F)c(-c4ccccc4)cc3s2)S(C)(=O)=O)o1 (stereo not shown) [Example B154, 2-(5-fluoro-6-phenyl-1,3-benzothiazol-2-yl)-N-[(5-methyl-1,3,4-oxadiazol-2-yl)methyl]-2-(methylsulfonyl)acetamide]
17 | < 10 | < 10 | CC(C)(C)OC(=O)c1ccc(-c2ccc3nc(C(C(=O)NCCS(N)(=O)=O)S(C)(=O)=O)sc3c2)cc1 (stereo not shown) [Example B156, tert-butyl 4-(2-(1-(methylsulfonyl)-2-oxo-2-(2-sulfamoylethylamino)eth-yl)benzo[d]thiazol-6-yl)benzoate]

More lines, now with the values behind:

Row | SMILES | IC50 [1] [nM] | IC50 [2] [nM]
18 | NS(=O)(=O)CCNC(=O)C(c1nc2ccc(-c3cnn(CCN4CCOCC4)c3)cc2s1)S(=O)(=O)CCCC(F)(F)F (stereo not shown) [Example B127, 2-(6-(1-(2-(4-morpholinyl)eth-yl)-1H-pyrazol-4-yl)-1,3-benzothiazol-2-yl)-N-(2-sulfamoylethyl)-2-((4,4,4-trifluorobutyl)sul-fonyl)acetamide] | 933 | < 10
19 | Cc1cc2nc(C(C(=O)NCCS(N)(=O)=O)S(C)(=O)=O)sc2cc1-c1ccc(F)nc1 (stereo not shown) [Example B129] | < 10 | < 10
20 | Cc1cc2nc(C(C(=O)NCCS(N)(=O)=O)S(=O)(=O)C(C)C)sc2cc1-c1ccc(F)nc1 (stereo not shown) [Example B132, 2-(6-(6-fluoro-3-pyridinyl)-5-methyl-1,3-benzothiazol-2-yl)-2-(isopropylsulfonyl)-N-(2-sulfamoylethyl)acetamide] | 411 | < 10
21 | NS(=O)(=O)CCNC(=O)C(c1nc2cc(F)c(-c3ccccc3)cc2s1)S(=O)(=O)CCNC(=O)OCc1ccccc1 (stereo not shown) [Example B135, benzyl (2-((1-(5-fluoro-6-phenyl-1,3-benzothiazol-2-yl)-2-oxo-2-((2-sulfamoyl-ethyl)amino)ethyl)sul-fonyl)ethyl)carbamate] | 56 | < 10
22 | NS(=O)(=O)CCNC(=O)C(c1nc2cc(F)c(-c3ccccc3)cc2s1)S(=O)(=O)CCC(F)(F)F (stereo not shown) [Example B136, 2-(5-fluoro-6-phenyl-1,3-benzothiazol-2-yl)-N-(2-sulfamoylethyl)-2-[(3,3,3-trifluoropropyl)sulfonyl]a-cetamide] | 11 | < 10
23 | COCCS(=O)(=O)C(C(=O)NCCS(N)(=O)=O)c1nc2ccc(-c3cncnc3)cc2s1 (stereo not shown) [Example B141, 2-((2-methoxyethyl)sul-fonyl)-2-(6-(5-pyrimidinyl)-1,3-benzothiazol-2-yl)-N-(2-sulfamoylethyl)acetamide] | 2210 | 14.7
24 | COc1cc(-c2ccc3nc(C(C(=O)NCCS(N)(=O)=O)S(=O)(=O)CCC(F)(F)F)sc3c2)ccn1 (stereo not shown) [Example B144, 2-(6-(2-methoxy-4-pyridinyl)-1,3-benzothiazol-2-yl)-N-(2-sulfamoylethyl)-2-((3,3,3-trifluoropropyl)sulfonyl)a-cetamide] | 33 | < 10
25 | COCCS(=O)(=O)C(C(=O)NCCS(N)(=O)=O)c1nc2ccc(-c3ccnc(OC)c3)cc2s1 (stereo not shown) [Example B148, 2-((2-methoxyethyl)sul-fonyl)-2-(6-(2-methoxy-4-pyridinyl)-1,3-benzothiazol-2-yl)-N-(2-sulfamoylethyl)acetamide] | 13 | < 10
26 | Cc1nnc(CNC(=O)C(c2nc3cc(F)c(-c4ccccc4)cc3s2)S(=O)(=O)CCC(F)(F)F)o1 (stereo not shown) [Example B150, 2-(5-Fluoro-6-phenyl-1,3-benzothiazol-2-yl)-N-((5-methyl-1,3,4-oxadiazol-2-yl)methyl)-2-((3,3,3-trifluoropropyl)sulfonyl)a-cetamide] | 84 | < 10
27 | CCS(=O)(=O)C(C(=O)NCc1nnc(C)o1)c1nc2cc(F)c(-c3ccccc3)cc2s1 (stereo not shown) [Example B151, 2-(ethylsulfonyl)-2-(5-fluoro-6-phenyl-1,3-benzothiazol-2-yl)-N-((5-methyl-1,3,4-oxadiazol-2-yl)methyl)acetamide] | 47 | < 10
28 | Cc1nnc(CNC(=O)C(c2nc3cc(F)c(-c4ccccc4)cc3s2)S(=O)(=O)CC(C)C)o1 (stereo not shown) [Example B152, 2-(5-fluoro-6-phenyl-1,3-benzothiazol-2-yl)-2-(isobutylsulfonyl)-N-((5-methyl-1,3,4-oxadiazol-2-yl)methyl)acetamide] | 39 | < 10
29 | COCCS(=O)(=O)C(C(=O)NCc1nnc(C)o1)c1nc2cc(F)c(-c3ccccc3)cc2s1 (stereo not shown) [Example B155, 2-(5-fluoro-6-phenyl-1,3-benzothiazol-2-yl)-2-[(2-methoxyethyl)sulfonyl]-N-[(5-methyl-1,3,4-oxadiazol-2-yl)methyl]acetamide] | < 10 | < 10
